These are literature values, as cited in patent US9700872B1, “Superpolar chromatographic stationary phases and extraction sorbents and their methods of synthesis” (THE FLORIDA INTERNATIONAL UNIVERSITY BOARD OF TRUSTEES, priority 2016, dated 2017).

The structures appear in SMILES notation.

For the first series the following is noted: octanol/water; Top 100 EPA Priority Pollutants (Table 2).
With `Clc1ccccc1Cl` [1,2-Dichlorobenzene], the “Log Kow” value is reported as 3.4.

`Brc1ccc(Oc2ccccc2)cc1` [4-Bromophenyl phenyl ether]: the “Log Kow” value is recorded as 4.4.

Turning to `Clc1ccc(Oc2ccccc2)cc1` [4-Chlorophenyl phenyl ether], the “Log Kow” value is listed as 4.3.

On to `c1cc2c3c(cccc3c1)CC2` [Acenaphthene], for which the “Log Kow” value is reported as 3.9.

As to `C1=Cc2cccc3cccc1c23` [Acenaphthylene], the “Log Kow” value is 3.7.

As to `c1ccc2cc3ccccc3cc2c1` [Anthracene], the “Log Kow” value is listed as 4.4.

With `c1ccc2c(c1)cc1ccc3cccc4ccc2c1c34` [Benzo(a)pyrene], the “Log Kow” value is recorded as 6.

Turning to `CCCCC(CC)COC(=O)c1ccccc1C(=O)OCC(CC)CCCC` (centres unmarked) [Bis(2-Ethylhexyl)phthalate], the “Log Kow” value is listed as 7.4.

As for `Clc1ccccc1` [Chlorobenzene], the “Log Kow” value is recorded as 2.84.

As to `CCCl` [Chloroethane], the “Log Kow” value is given as 1.2.

With `CCCCOC(=O)c1ccccc1C(=O)OCCCC` [Di-N-butyl phthalate], the “Log Kow” value is on record as 4.7.

Turning to `CCOC(=O)c1ccccc1C(=O)OCC` [Diethyl phthalate], the “Log Kow” value is reported as 2.5.

As to `c1ccc2c(c1)Cc1ccccc1-2` [Fluorene], the “Log Kow” value is 4.2.

`CC1=CC(=O)CC(C)(C)C1` [Isophorone]: the “Log Kow” value was 1.6.

With `c1ccc2c(c1)ccc1ccccc12` [Phenanthrene], the “Log Kow” value is 4.5.

The series is the same for the next values; noted with them: octanol/water; exemplary polyhydroxy molecules (Table 1).
Consider `OC[C@@H](O)[C@@H](O)[C@H](O)[C@@H](O)CO` [Sorbitol], for which the “Log Kow” value is −3.1.

Consider `OC[C@H]1O[C@H](O[C@]2(CCl)O[C@H](CCl)[C@@H](O)[C@@H]2O)[C@H](O)[C@@H](O)[C@H]1Cl` [Sucralose], for which the “Log Kow” value is on record as −1.5.
